As a reminder, the T/C is the result in the treated group divided by that in the control group, in per cent.

In the experiment the test system is BDF1 mice, Adenocarcinoma 755 s.c., tumor weight T/C. The experiment is described as follows: NCI In Vivo Anticancer Drug Screen. Data for tumor model Adenocarcinoma 755 (subcutaneous) in B6D2F1 (BDF1) mice. Conditions: endpoint: mean tumor weight, higher = larger tumour. The method, boiled down: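 Tumor-bearing mice receive test compound while controls get vehicle alone. Antitumor effect is scored from survival or tumor dimensions as a T/C quotient.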

Where [1] appears, read: dose: 7.5 mg/kg/injection, schedule: Q01DX011 (ip), vehicle: carboxymethylcellulose (CMC).
Where [2] appears, read: dose: 15.0 mg/kg/injection, schedule: Q01DX011 (ip), vehicle: carboxymethylcellulose (CMC).
The mark [3] stands for this setting: dose: 125.0 mg/kg/injection, schedule: Q01DX011 (ip), vehicle: saline.
[4] abbreviates: dose: 250.0 mg/kg/injection, schedule: Q01DX011 (ip), vehicle: saline.
Setting [5] is: dose: 500.0 mg/kg/injection, schedule: Q01DX011 (ip), vehicle: saline.

Molecules are shown by their SMILES. Values joined by “and” are separate entries in the source; they are usually repeats but may differ in a detail not shown here. Equal values may be shown once.

Take `C[C@]12CC[C@@H]3c4ccc(O)cc4CC[C@H]3[C@@H]1CC[C@@H]2O`: the T/C is, setting by setting: (dose: 125.0 mg/kg/injection, schedule: Q01DX011 (sc), vehicle: steriod suspending solution) 77 % of control; (dose: 250.0 mg/kg/injection, schedule: Q01DX011 (sc), vehicle: steriod suspending solution) 32 % of control; (dose: 500.0 mg/kg/injection, schedule: Q01DX011 (sc), vehicle: steriod suspending solution) 65 % of control; (dose: 1000.0 mg/kg/injection, schedule: Q01DX011 (sc), vehicle: steriod suspending solution) 42 % of control.

`NC(=O)c1cn(C2OC(CO)C(O)C2O)c2ncnc(N)c12` (stereo not given): the T/C is, setting by setting: (dose: 0.12 mg/kg/injection, schedule: Q01DX011 (ip), vehicle: carboxymethylcellulose (CMC)) 71 % of control; (dose: 0.25 mg/kg/injection, schedule: Q01DX011 (ip), vehicle: carboxymethylcellulose (CMC)) 54 % of control; (dose: 0.5 mg/kg/injection, schedule: Q01DX011 (ip), vehicle: carboxymethylcellulose (CMC)) 51 % of control.

Consider `CC(=O)OCC1OC(n2cnc3c(=S)nc[nH]c32)C(OC(C)=O)C1OC(C)=O` (stereo not given), for which the T/C (dose: 0.2 mg/kg/injection, schedule: Q01DX011 (ip), vehicle: carboxymethylcellulose (CMC)) is 84 % of control; the T/C (dose: 0.4 mg/kg/injection, schedule: Q01DX011 (ip), vehicle: carboxymethylcellulose (CMC)) is 93 % of control; the T/C (dose: 0.9 mg/kg/injection, schedule: Q01DX011 (ip), vehicle: carboxymethylcellulose (CMC)) is 61 % of control; the T/C (dose: 1.8 mg/kg/injection, schedule: Q01DX011 (ip), vehicle: carboxymethylcellulose (CMC)) was 14 % of control and 31 % of control; the T/C (dose: 3.7 mg/kg/injection, schedule: Q01DX011 (ip), vehicle: carboxymethylcellulose (CMC)) is 6 % of control; the T/C under setting [1] is 3 % of control. Besides, under setting [2], the T/C is 2 % of control.

As to `COc1cc2c(cc1I)-c1c(cc(OC)c(OC)c1OC)CC[C@@H]2NC(C)=O`, the T/C is, setting by setting: (dose: 27.5 mg/kg/injection, schedule: Q01DX011 (ip), vehicle: carboxymethylcellulose (CMC)) 98 % of control; (dose: 27.5 mg/kg/injection, schedule: Q01DX011 (ip), vehicle: saline) 106 % of control; (dose: 55.0 mg/kg/injection, schedule: Q01DX011 (ip), vehicle: carboxymethylcellulose (CMC)) 81 % of control; (dose: 55.0 mg/kg/injection, schedule: Q01DX011 (ip), vehicle: saline) 86 % of control; (dose: 110.0 mg/kg/injection, schedule: Q01DX011 (ip), vehicle: carboxymethylcellulose (CMC)) 40 % of control; (dose: 110.0 mg/kg/injection, schedule: Q01DX011 (ip), vehicle: saline) 58 % of control. Moreover, the T/C (dose: 220.0 mg/kg/injection, schedule: Q01DX011 (ip), vehicle: saline) is 16 % of control.

With `S=c1c2[nH]cnc2ncn1CCSC1=NC=NC2=NC=NC21` (stereo not given), the T/C was 61 % of control (dose: 4.0 mg/kg/injection, schedule: Q01DX011 (ip), vehicle: methylcellulose (MC)); 71 % of control (dose: 8.0 mg/kg/injection, schedule: Q01DX011 (ip), vehicle: methylcellulose (MC)); 19 % of control (dose: 16.0 mg/kg/injection, schedule: Q01DX011 (ip), vehicle: methylcellulose (MC)).

As for `CCCCn1cnc2c(SC)nc(N)nc21`, the T/C is, setting by setting: (dose: 3.8 mg/kg/injection, schedule: Q01DX011 (ip), vehicle: carboxymethylcellulose (CMC)) 95 % of control; under setting [1], 49 % of control; (dose: 9.0 mg/kg/injection, schedule: Q01DX011 (ip), vehicle: carboxymethylcellulose (CMC)) 79 % of control; (dose: 13.0 mg/kg/injection, schedule: Q01DX011 (ip), vehicle: carboxymethylcellulose (CMC)) 69 % of control; under setting [2], 30 % of control; (dose: 20.0 mg/kg/injection, schedule: Q01DX011 (ip), vehicle: carboxymethylcellulose (CMC)) 44 % of control. The T/C was 3 % of control and 4 % of control (dose: 60.0 mg/kg/injection, schedule: Q01DX011 (ip), vehicle: carboxymethylcellulose (CMC)); 2 % of control and 3 % of control (dose: 115.0 mg/kg/injection, schedule: Q01DX011 (ip), vehicle: carboxymethylcellulose (CMC)).

Take `Nc1cc(C(=O)O)nc(N)n1`: the T/C (dose: 31.0 mg/kg/injection, schedule: Q01DX011 (ip), vehicle: methylcellulose (MC)) is 68 % of control.

As for `NC(=O)c1cc(N)nc(Cl)n1`, the T/C (dose: 15.0 mg/kg/injection, schedule: Q01DX011 (ip), vehicle: saline) was 102 % of control; the T/C (dose: 31.0 mg/kg/injection, schedule: Q01DX011 (ip), vehicle: saline) is 90 % of control; the T/C (dose: 62.0 mg/kg/injection, schedule: Q01DX011 (ip), vehicle: saline) was 87 % of control; the T/C under setting [3] is 83 % of control; the T/C under setting [4] was 61 % of control.

Take `CC1(C)C(=O)CC[C@@]2(C)C1=CC[C@@H]1[C@@H]2CC[C@@]2(C)[C@H]1CC[C@]2(C)O`: the T/C was 105 % of control (dose: 25.0 mg/kg/injection, schedule: Q01DX011 (sc), vehicle: steriod suspending solution); 92 % of control (dose: 200.0 mg/kg/injection, schedule: Q01DX011 (sc), vehicle: steriod suspending solution); 87 % of control (dose: 400.0 mg/kg/injection, schedule: Q01DX011 (sc), vehicle: steriod suspending solution).

With `Cn1c(=O)c2c(nc(N/N=C/c3ccccc3Br)n2C)n(C)c1=O`, the T/C (dose: 30.0 mg/kg/injection, schedule: Q01DX011 (ip), vehicle: carboxymethylcellulose (CMC)) was 96 % of control; the T/C (dose: 120.0 mg/kg/injection, schedule: Q01DX011 (ip), vehicle: carboxymethylcellulose (CMC)) was 101 % of control; the T/C (dose: 240.0 mg/kg/injection, schedule: Q01DX011 (ip), vehicle: carboxymethylcellulose (CMC)) was 89 % of control.

Turning to `CN(C)CCCN1c2ccccc2Sc2ccc(Cl)cc21`, the T/C by setting is: (dose: 11.25 mg/kg/injection, schedule: Q01DX011 (ip), vehicle: methylcellulose (MC)) 44 % of control; (dose: 11.25 mg/kg/injection, schedule: Q01DX011 (ip), vehicle: saline) 59 % of control; (dose: 22.5 mg/kg/injection, schedule: Q01DX011 (ip), vehicle: methylcellulose (MC)) 28 % of control; (dose: 22.5 mg/kg/injection, schedule: Q01DX011 (ip), vehicle: saline) 47 % of control; (dose: 45.0 mg/kg/injection, schedule: Q01DX011 (ip), vehicle: methylcellulose (MC)) 33 % of control; (dose: 45.0 mg/kg/injection, schedule: Q01DX011 (ip), vehicle: saline) 38 % of control. Further, where the note is “dose: 90.0 mg/kg/injection, schedule: Q01DX011 (ip), vehicle: methylcellulose (MC)”, the T/C was 25 % of control.

Consider `NNc1ncnc2nc[nH]c12`, for which the T/C (dose: 25.0 mg/kg/injection, schedule: Q01DX011 (ip), vehicle: carboxymethylcellulose (CMC)) is 68 % of control and the T/C (dose: 37.5 mg/kg/injection, schedule: Q01DX011 (ip), vehicle: carboxymethylcellulose (CMC)) was 57 % of control.

In the case of `S=c1nc[nH]c2c1ncn2C1CCCCC1`, the T/C is 117 % of control (dose: 62.0 mg/kg/injection, schedule: Q01DX011 (ip), vehicle: carboxymethylcellulose (CMC)); 118 % of control (dose: 125.0 mg/kg/injection, schedule: Q01DX011 (ip), vehicle: carboxymethylcellulose (CMC)); 154 % of control (dose: 188.0 mg/kg/injection, schedule: Q01DX011 (oral), vehicle: carboxymethylcellulose (CMC)); 66 % of control (dose: 250.0 mg/kg/injection, schedule: Q01DX011 (ip), vehicle: carboxymethylcellulose (CMC)); 104 % of control (dose: 376.0 mg/kg/injection, schedule: Q01DX011 (oral), vehicle: carboxymethylcellulose (CMC)); 62 % of control (dose: 500.0 mg/kg/injection, schedule: Q01DX011 (ip), vehicle: carboxymethylcellulose (CMC)). Further, under “dose: 752.0 mg/kg/injection, schedule: Q01DX011 (oral), vehicle: carboxymethylcellulose (CMC)”, the T/C was 87 % of control.

Turning to `N#[N+]c1nc[nH]c1C(N)=O`, the T/C (dose: 1.25 mg/kg/injection, schedule: Q01DX011 (ip), vehicle: methylcellulose (MC)) was 61 % of control.

In the case of `Clc1cccc(CSc2ncnc3c2ncn3C2CCCCO2)c1` (stereo not given), the T/C (dose: 30.0 mg/kg/injection, schedule: Q01DX011 (ip), vehicle: methylcellulose (MC)) was 18 % of control and the T/C (dose: 100.0 mg/kg/injection, schedule: Q01DX011 (ip), vehicle: methylcellulose (MC)) is 6 % of control.

In the case of `C[C@H](N)C(=O)N[C@@H]1[C@H]2C(=C(O)C[C@@H](O)[C@@H]2O)C(=O)O[C@@H]1C`, the T/C is, setting by setting: under setting [4], 79 % of control; under setting [5], 64 % of control.

Consider `NC(CO)(CO)CO`, for which the T/C under setting [3] is 72 % of control; the T/C under setting [4] was 69 % of control; the T/C under setting [5] is 75 % of control; the T/C (dose: 1000.0 mg/kg/injection, schedule: Q01DX011 (ip), vehicle: saline) is 84 % of control.

On to `O=C(Nc1ccc2c(O)c(N=Nc3ccccc3)c(S(=O)(=O)O)cc2c1)Nc1ccc2c(O)c(N=Nc3ccc4cc(S(=O)(=O)O)ccc4c3)c(S(=O)(=O)O)cc2c1`, for which the T/C (dose: 45.0 mg/kg/injection, schedule: Q01DX011 (ip), vehicle: carboxymethylcellulose (CMC)) was 47 % of control.

Values taken from PubChem BioAssay AID180 (DTP/NCI, 2004).
